# Laboratory results: US20260159533A1, “INHIBITORS OF COMPLEMENT FACTORS AND USES THEREOF” (Annexon, Inc., priority 2022, published 2026)
# Structures can show the parent of a compound that is named as a salt.
# Biological target: T1, human C1s protein (Homo sapiens, UniProt P09871)
# T1 construct: purchased R&D Systems or Complement Technologies 2060-SE or A104
# T1 sequence (P09871 16-688): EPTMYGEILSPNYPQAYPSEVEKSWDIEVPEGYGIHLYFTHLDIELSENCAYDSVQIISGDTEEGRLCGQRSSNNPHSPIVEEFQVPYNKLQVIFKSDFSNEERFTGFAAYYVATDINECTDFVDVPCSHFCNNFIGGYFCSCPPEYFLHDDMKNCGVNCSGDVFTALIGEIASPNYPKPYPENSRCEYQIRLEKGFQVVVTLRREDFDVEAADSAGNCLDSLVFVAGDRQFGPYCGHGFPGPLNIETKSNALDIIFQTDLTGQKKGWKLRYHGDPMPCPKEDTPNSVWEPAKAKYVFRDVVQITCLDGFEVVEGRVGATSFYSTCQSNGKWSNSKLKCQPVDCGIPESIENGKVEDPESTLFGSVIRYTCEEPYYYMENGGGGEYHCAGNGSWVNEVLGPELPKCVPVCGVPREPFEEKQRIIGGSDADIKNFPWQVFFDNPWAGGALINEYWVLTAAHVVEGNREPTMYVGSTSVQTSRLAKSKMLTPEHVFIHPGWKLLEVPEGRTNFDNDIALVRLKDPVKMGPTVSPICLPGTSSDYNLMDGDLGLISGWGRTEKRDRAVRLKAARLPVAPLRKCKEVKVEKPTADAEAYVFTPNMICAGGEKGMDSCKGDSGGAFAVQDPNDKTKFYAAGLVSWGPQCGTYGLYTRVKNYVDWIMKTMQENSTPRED
# Assay: recombinant C1s enzymatic assay (YLGR-Rh110-dPro substrate hydrolysis, fluorescence)
# Assay type: biochemical
# Settings: recombinant human C1s 2.5 nM, substrate YLGR-Rh110-dPro 20 μM, 15 min pre-incubation, 60 min RT; read-out: rec. hC11s pIC50 (converted)
# Protocol: Compound testing in the purified or recombinant C1s enzymatic assay C1s is a serine protease; its enzymatic activity is measured in vitro by the hydrolysis of the synthetic substrate YLGR-Rh110-dPro (Kerr F K, O'Brien G, Quinsey N S, Whisstock J C, Boyd S, de la Banda M G, Kaiserman D, Matthews A Y, Bird P I, Pike R N. Elucidation of the substrate specificity of the Cis protease of the classical complement pathway. J. Biol. Chem. (2005) 280, 39510-39514). The enzyme cleaves the substrate with the release of Rh110 which is highly fluorescent. Cis inhibitors prevent the hydrolysis of the substrate thus resulting in a decrease of the signal.
# The recombinant C1s enzymatic assay is performed using the human C1s protein (R&D Systems, 2060-SE or Complement Technologies, A104). The assay buffer composition is: 50 mM HEPES pH 7.5 (Sigma, H3375), 150 mM NaCl (Sigma, S7653), 0.2% PEG 8000 (VWR, AA43443-22), 0.01% Pluronic F127 (Sigma, P2243). On the day of the experiment 0.1 mg/mL BSA (Sigma, B4287) is added fresh to the buffer. The test item stock solutions are serially diluted 1:3 or 1:4 or 1:5 with DMSO, 11-point curves, in a 384-well compound plate. Nafamostat concentration curve is always included in the assay plate as a reference control.
# The assay plate is prepared by dispensing 0.25 μL from compound plate into a 384-well black assay plate (assay plate, Greiner Fluotrac 200, 781076, VWR 736-0140). The high controls are prepared dispensing in 0.25 μL DMSO in column 23, rows AH or AP and low controls with 0.25 μL of 0.1 μM Nafamostat. Cis solution is prepared as 2× of the 2.5 nM final assay concentration. The YLGR-Rh110-dPro substrate is prepared as 2× of the final assay concentration of 20 μM. 5 μL/well of 2× enzyme solution is dispensed and pre-incubated for 15 min with the compounds. The enzymatic reaction is the started with 5 μL/well of the 2× substrate solution. The plate is incubated for 60 min RT in the dark and fluorescence is measured (ex 485/em 535 nm) using an Envision (PerkinElmer) or an equivalent instrument.
row,Structure (SMILES),IC50 [nM]
1,"Nc1cnnc2cc(-c3cc(B(O)O)cc4c3-n3nccc3CCO4)ccc12 [Example 65, [[10-(4-aminocinnolin-7-yl)-4,5-dihydropyrazolo[5,1-d][1,5]benzoxazepin-8-yl]boronic acid formic acid salt]",2.4
2,"COc1cc(-n2cc(F)cn2)c(-c2ccc3c(N)cnnc3c2)cc1B(O)O [Example 40, [5-(4-aminocinnolin-7-yl)-4-(4-fluoropyrazol-1-yl)-2-methoxyphenyl]boronic acid]",1.58
3,"Nc1cnnc2cc(-c3cc(B(O)O)ccc3-n3cc(F)cn3)ccc12 [Example 11, [3-(4-aminocinnolin-7-yl)-4-(4-fluoro-1H-pyrazol-1-yl)phenyl]boronic acid formic acid salt]",1.45
4,"COc1cc(-n2cc(C(F)F)cn2)c(-c2ccc3c(N)cnnc3c2)cc1B(O)O [Example 29, [5-(4-aminocinnolin-7-yl)-4-[4-(difluoromethyl)-1H-pyrazol-1-yl]-2-methoxyphenyl]boronic acid formic acid salt]",0.977
5,"Nc1cnnc2cc(-c3cc(B(O)O)ccc3-c3cc(C(F)(F)F)[nH]n3)ccc12 [Example 19, [3-(4-aminocinnolin-7-yl)-4-[5-(trifluoromethyl)-1H-pyrazol-3-yl]phenyl]boronic acid]",34.7
6,"Nc1cnnc2cc(-c3cc(B(O)O)ccc3-n3ccnn3)ccc12 [Example 16, [3-(4-aminocinnolin-7-yl)-4-(1H-1,2,3-triazol-1-yl)phenyl]boronic acid]",3.98
7,"Nc1cnnc2cc(-c3cc(B(O)O)ccc3-n3cncn3)ccc12 [Example 5, [3-(4-aminocinnolin-7-yl)-4-(1H-1,2,4-triazol-1-yl)phenyl]boronic acid formic acid salt]",1.32
8,"Nc1cnnc2cc(-c3cc(B(O)O)ccc3-c3nccs3)ccc12 [Example 24, [3-(4-aminocinnolin-7-yl)-4-(1,3-thiazol-2-yl)phenyl]boronic acid formic acid salt]",2.57

# Next, values leading:
row,IC50 [nM],Structure (SMILES)
1,1.17,"COc1cc(-c2ncc(C)s2)c(-c2ccc3c(N)cnnc3c2)cc1B(O)O [Example 50, [5-(4-aminocinnolin-7-yl)-2-Methoxy-4-(5-methylthiazol-2-yl)phenyl]boronic acid formic acid salt]"
2,1.45,"Nc1cnnc2cc(-c3cc4c(cc3-c3nccs3)OCCOB4O)ccc12 [Example 76, 7-(1-hydroxy-7-thiazol-2-yl-3,4-dihydro-2,5,1-benzodioxaborepin-8-yl)cinnolin-4-amine]"
3,1.2,"COc1cc(-n2cc(OC(F)(F)F)cn2)c(-c2ccc3c(N)cnnc3c2)cc1B(O)O [Example 85, [5-(4-aminocinnolin-7-yl)-2-methoxy-4-[4-(trifluoromethoxy)pyrazol-1-yl]phenyl]boronic acid formic acid salt]"
4,0.759,"Nc1cnnc2cc(-c3cc(B(O)O)c(OC4CC4)cc3-n3cccn3)ccc12 [Example 89, [5-(4-aminocinnolin-7-yl)-2-(cyclopropoxy)-4-pyrazol-1-yl-phenyl]boronic acid formic acid salt]"
